Biological target: T1, recombinant human MAS1 (Homo sapiens, UniProt P04201)
T1 construct: expressed in transfected cells; host or cells: CHO cells stably transfected with pTEJ-8 vector
T1 sequence (P04201 1-325): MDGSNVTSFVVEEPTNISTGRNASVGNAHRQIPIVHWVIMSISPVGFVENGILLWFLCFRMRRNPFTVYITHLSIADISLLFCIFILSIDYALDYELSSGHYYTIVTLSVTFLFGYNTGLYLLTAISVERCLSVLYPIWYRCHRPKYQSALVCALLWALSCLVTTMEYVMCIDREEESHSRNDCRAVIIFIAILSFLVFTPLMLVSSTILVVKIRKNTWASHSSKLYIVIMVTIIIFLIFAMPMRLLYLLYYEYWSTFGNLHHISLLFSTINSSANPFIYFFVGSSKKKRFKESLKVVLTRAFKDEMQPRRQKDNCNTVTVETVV
Experiment: MAS1 receptor activation, cell-based fluorescence assay of NO release in CHO cells
Settings: absence of antagonist, MAS1 stably transfected CHO cells, 2 h incubation, two experiments
Description: Next, we tested the ability of cyclotide MCo-AT1-7 to activate the MAS1 receptor using CHO cells stably transfected with pTEJ-8 vector expressing recombinant human MAS1 in a cell-based fluorescence assay to detect the amount of NO release (Figure 5). […] The activity of the cyclotide MCo-AT1-7 was estimated to be ≈90% of that of peptide AT1-7 at 10 nM in this assay.
CHO cells stably transfected with pTEJ-8 vector expressing recombinant human MAS1 clone are grown to confluency. After washing, cells were incubated for a short time in 700 µL of supplemented Tyrode’s salts containing 10 µM 2-phenyl-4,4,5,5-tetramethylimidazoline-1-oxyl-3-oxide (PTIO), 100 µM 2,6-diaminonaftalene (DAN), and 1 mM L-arginine. When using antagonist for competition assays, cells are exposed to MAS1 antagonist A779 (D-Ala^7-AT 1-7) at 0.1 µM for 15 min before addition of the cyclotides to be tested. Different concentrations of the cyclotides to be analyzed are added to the cell medium and the plates are agitated for 1 min before being placed into the incubator for 2 h. After 2 h, the cellular supernatants are transferred to opaque 96 well plates, and the amount of released NO is measured by fluorescence (λex = 380 nm, λem = 425 nm).

CC[C@H](C)[C@H](NC(=O)[C@H](Cc1ccc(O)cc1)NC(=O)[C@@H](NC(=O)[C@H](CCCNC(=N)N)NC(=O)[C@@H](N)CC(=O)O)C(C)C)C(=O)N[C@@H](Cc1c[nH]cn1)C(=O)N1CCC[C@H]1C(=O)O [AT1-7, angiotensin (1-7)]
MAS1 activation: increase of intracellular NO concentration: increase the intracellular concentration of NO in a dose dependent manner

Reference: publication PMC4795166, “Design of a MCoTI-Based Cyclotide with Angiotensin (1-7)-Like Activity” (Molecules, 2016)
